# From patent US4352885A, “Preparation of a novel NADP linked alcohol-aldehyde/ketone oxidoreductase from thermophilic anaerobic bacteria for analytical and commercial use” (Wisconsin Alumni Research Foundation, priority 1980, dated 1982)
# Key:
# [1] = biological target: T1, heat treated T. brockii extract (Thermoanaerobacter brockii, UniProt P14941); experiment: Reduction of 2-pentanone by heat treated extract with NADPH regenerating system (gas chromatographic analysis); format: biochemical, Thermoanaerobium brockii; details: 3 g in 150 ml; 0.2 v/v isopropanol, 0.3 mM NADP; 40 hr. at 37° C.
# T1 construct: made in house; host or cells: T. brockii itself (native host; heat treated crude extract)
# T1 sequence (P14941 1-352): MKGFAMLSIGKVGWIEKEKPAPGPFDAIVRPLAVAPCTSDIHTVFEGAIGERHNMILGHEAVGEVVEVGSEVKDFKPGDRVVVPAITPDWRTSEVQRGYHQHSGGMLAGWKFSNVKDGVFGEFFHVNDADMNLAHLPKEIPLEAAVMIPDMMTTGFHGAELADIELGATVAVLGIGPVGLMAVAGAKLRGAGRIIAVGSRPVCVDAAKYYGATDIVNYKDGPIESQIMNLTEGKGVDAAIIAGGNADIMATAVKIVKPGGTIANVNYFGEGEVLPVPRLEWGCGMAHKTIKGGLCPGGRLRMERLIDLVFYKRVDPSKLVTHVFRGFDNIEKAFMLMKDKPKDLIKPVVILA
# Protocol: As illustrated in the following reaction diagram, an NADPH regenerating system can be initiated with isopropanol as the electron donor for the reduction of 2-pentanone. [drawing 1] A 150 ml solution was prepared containing 50 mM Tris-HCl (pH 7.8), 0.2 v/v isopropanol, 2 mM dithiothreitol, 0.3 mM NADP and 3 g 2-pentanone. After the solution was degassed with N2, sufficient heat treated T. brockii extract was added to yield an activity of 1 U/min./ml. The solution was incubated in a stoppered vessel for 40 hr. at 37° C. Gas chromatographic analysis indicated a 90% conversion of 2-pentanone to the corresponding alcohol. The mixture was extracted with diethyl ether and then fractionally distilled. The fractions were analyzed by conventional gas chromatographic and NMR (nuclear magnetic resonance) methods. The pure 2-pentanol fraction yielded a dextrorotatory optical rotation which corresponded to that of a highly optically enriched compound. The result in optical purity was dependent on incubation temperature and initial rate of isopropanol to 2-pentanone. Decreasing the temperature from 37° C. to 25° C. and the 2-pentanone concentration from 3 grams/150 ml to 0.6 grams/150 ml, increases the d/l bar ratio from 6/l to 9/l for the resulting 2-pentanol.
# [2] = biological target: T2, NADP linked alcohol dehydrogenase (alcohol-aldehyde/ketone oxidoreductase) (Thermoanaerobacter brockii, UniProt P14941); experiment: Specific activity of partially purified NADP linked alcohol dehydrogenase with alcohols and carbonyl compounds (absorbance at 334 nm); format: biochemical, Thermoanaerobium brockii; details: saturating substrate (0.2-0.5 M alcohol or ketone, 10 mM acetaldehyde); 0.5 mM NADP or 0.2 mM NADPH; 0.1 M Tris-Cl pH 7.8
# T2 construct: of the T. brockii enzyme preparation with various alcohols and carbonyl compounds; made in house; host or cells: T. brockii itself (native host; partially purified enzyme)
# T2 sequence (P14941 1-352): T1 sequence (P14941 1-352)
smiles,measurement,setting,value
"CCCC(C)=O [CH3 COCH2 CH2 CH3, 2-pentanone]",Conversion to the corresponding alcohol,[1],90%
same,Activity V/mg. at 60° C.,[2],4.2 μ Mole/Min./Mg Protein
